From ChEMBL document CHEMBL5143622, “Synthesis and biological evaluation of 7H-pyrrolo [2,3-d] pyrimidine derivatives as potential p21-activated kinase 4 (PAK4) inhibitors” (Bioorg Med Chem, 2022)
Blank lines part the entries; values can stand above or below the compound they belong to.

Legend:
[1] = biological target: T1, Serine/threonine-protein kinase PAK 4 (Homo sapiens, UniProt O96013); assay: Inhibition of human PAK4 assessed as enzymatic activity at 2 uM incubated for 20 mins by filter binding method relative to control
Target sequence in this assay (O96013 whole entry, looked up): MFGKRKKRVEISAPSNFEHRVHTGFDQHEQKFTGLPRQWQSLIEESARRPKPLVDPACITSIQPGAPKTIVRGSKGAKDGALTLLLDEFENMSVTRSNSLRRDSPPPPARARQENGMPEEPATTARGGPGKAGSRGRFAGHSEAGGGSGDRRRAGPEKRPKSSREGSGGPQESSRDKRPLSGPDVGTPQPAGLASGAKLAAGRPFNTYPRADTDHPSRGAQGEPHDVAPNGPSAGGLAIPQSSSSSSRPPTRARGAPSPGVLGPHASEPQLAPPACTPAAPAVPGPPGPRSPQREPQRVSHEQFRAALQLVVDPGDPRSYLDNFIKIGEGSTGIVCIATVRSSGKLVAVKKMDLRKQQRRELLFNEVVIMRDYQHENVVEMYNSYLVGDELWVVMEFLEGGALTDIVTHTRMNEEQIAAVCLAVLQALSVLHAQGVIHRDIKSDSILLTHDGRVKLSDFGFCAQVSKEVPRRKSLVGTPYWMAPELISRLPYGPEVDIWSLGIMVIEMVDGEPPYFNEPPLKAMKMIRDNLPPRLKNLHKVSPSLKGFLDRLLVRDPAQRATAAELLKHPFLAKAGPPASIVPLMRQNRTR

[2] = biological target: T1, Serine/threonine-protein kinase PAK 4; assay: Inhibition of human PAK4 assessed as enzymatic activity incubated for 20 mins by filter binding method
Target sequence in this assay (O96013 whole entry): as the sequence (O96013 whole entry, looked up) above

[3] = biological target: T1, Serine/threonine-protein kinase PAK 4; assay: Inhibition of human PAK4 assessed as inhibition constant
Target sequence in this assay (O96013 whole entry): as the sequence (O96013 whole entry, looked up) above

MV4-11 [4] = assay: Antiproliferative activity against human MV4-11 cells assessed as cell growth inhibition incubated for 72 hrs by cell titre glo luminescence assay; assay type: functional, cell-based; conditions: MV4-11, 72 h
MDA-MB-231 = assay: Antiproliferative activity against human MDA-MB-231 cells assessed as cell growth inhibition incubated for 72 hrs by cell titre glo luminescence assay; assay type: functional, cell-based; conditions: MDA-MB-231, 72 h
[5] = Cytotoxicity against HEK293T cells assessed as cell growth inhibition incubated for 72 hrs by cell titre glo luminescence assay; assay type: toxicity, cell-based, HEK-293T; conditions: human
MV4-11 [6] = assay: Induction of cell cycle arrest in human MV4-11 cells assessed as accumulation at G2/M phase at 5 nM incubated for 24 hrs by propidium iodide staining based flow cytometry analysis (reference value: 7.46 %); assay type: functional
MV4-11 [7] = assay: Induction of cell cycle arrest in human MV4-11 cells assessed as accumulation at S phase at 10 nM incubated for 24 hrs by propidium iodide staining based flow cytometry analysis (reference value: 25.75 %); assay type: functional
MV4-11 [8] = assay: Induction of cell cycle arrest in human MV4-11 cells assessed as accumulation at S phase at 5 nM incubated for 24 hrs by propidium iodide staining based flow cytometry analysis (reference value: 25.75 %); assay type: functional
MV4-11 [9] = assay: Induction of apoptosis in human MV4-11 cells assessed as late apoptotic cells at 10 nM incubated for 48 hrs by annexin V-FITC and propidium iodide staining based flow cytometry analysis (reference value: 1.67 %); assay type: functional
MV4-11 [10] = assay: Induction of apoptosis in human MV4-11 cells assessed as necrotic cells at 10 nM incubated for 48 hrs by annexin V-FITC and propidium iodide staining based flow cytometry analysis (reference value: 0.013 %); assay type: functional
MV4-11 [11] = assay: Induction of cell cycle arrest in human MV4-11 cells assessed as accumulation at G0/G1 phase at 50 nM incubated for 24 hrs by propidium iodide staining based flow cytometry analysis (reference value: 66.79 %); assay type: functional
MV4-11 [12] = assay: Induction of cell cycle arrest in human MV4-11 cells assessed as accumulation at G0/G1 phase at 10 nM incubated for 24 hrs by propidium iodide staining based flow cytometry analysis (reference value: 66.79 %); assay type: functional
MV4-11 [13] = assay: Induction of apoptosis in human MV4-11 cells assessed as early apoptotic cells at 10 nM incubated for 48 hrs by annexin V-FITC and propidium iodide staining based flow cytometry analysis (reference value: 3.71 %); assay type: functional
MV4-11 [14] = assay: Induction of cell cycle arrest in human MV4-11 cells assessed as accumulation at S phase at 50 nM incubated for 24 hrs by propidium iodide staining based flow cytometry analysis (reference value: 25.75 %); assay type: functional
MV4-11 [15] = assay: Induction of apoptosis in human MV4-11 cells assessed as viable cells at 10 nM incubated for 48 hrs by annexin V-FITC and propidium iodide staining based flow cytometry analysis (reference value: 95.6 %); assay type: functional; conditions: read-out: Activity
MV4-11 [16] = assay: Induction of cell cycle arrest in human MV4-11 cells assessed as accumulation at G2/M phase at 50 nM incubated for 24 hrs by propidium iodide staining based flow cytometry analysis (reference value: 7.46 %); assay type: functional
MV4-11 [17] = assay: Induction of apoptosis in human MV4-11 cells assessed as early apoptotic cells at 250 nM incubated for 48 hrs by annexin V-FITC and propidium iodide staining based flow cytometry analysis (reference value: 3.71 %); assay type: functional
MV4-11 [18] = assay: Induction of cell cycle arrest in human MV4-11 cells assessed as accumulation at G2/M phase at 10 nM incubated for 24 hrs by propidium iodide staining based flow cytometry analysis (reference value: 7.46 %); assay type: functional
MV4-11 [19] = assay: Induction of apoptosis in human MV4-11 cells assessed as viable cells at 50 nM incubated for 48 hrs by annexin V-FITC and propidium iodide staining based flow cytometry analysis (reference value: 95.6 %); assay type: functional; conditions: read-out: Activity
MV4-11 [20] = assay: Induction of cell cycle arrest in human MV4-11 cells assessed as accumulation at G0/G1 phase at 5 nM incubated for 24 hrs by propidium iodide staining based flow cytometry analysis (reference value: 66.79 %); assay type: functional
MV4-11 [21] = assay: Induction of apoptosis in human MV4-11 cells assessed as necrotic cells at 50 nM incubated for 48 hrs by annexin V-FITC and propidium iodide staining based flow cytometry analysis (reference value: 0.013 %); assay type: functional
MV4-11 [22] = assay: Induction of apoptosis in human MV4-11 cells assessed as viable cells at 250 nM incubated for 48 hrs by annexin V-FITC and propidium iodide staining based flow cytometry analysis (reference value: 95.6 %); assay type: functional; conditions: read-out: Activity
MV4-11 [23] = assay: Induction of apoptosis in human MV4-11 cells assessed as late apoptotic cells at 50 nM incubated for 48 hrs by annexin V-FITC and propidium iodide staining based flow cytometry analysis (reference value: 1.67 %); assay type: functional
MV4-11 [24] = assay: Induction of apoptosis in human MV4-11 cells assessed as necrotic cells at 250 nM incubated for 48 hrs by annexin V-FITC and propidium iodide staining based flow cytometry analysis (reference value: 0.013 %); assay type: functional
[25] = biological target: T1, Serine/threonine-protein kinase PAK 4; assay: Inhibition of PAK4 phosphorylation at Ser474 residue in human MV4-11 cells at 50 to 800 nM incubated for 24 hrs by Western blot analysis; assay type: cell-based; conditions: dose 50-800 nM, DDE = dose-dependent effect
Target sequence in this assay (O96013 whole entry, looked up): as above

MV4-11 [26] = assay: Induction of apoptosis in human MV4-11 cells assessed as late apoptotic cells at 250 nM incubated for 48 hrs by annexin V-FITC and propidium iodide staining based flow cytometry analysis (reference value: 1.67 %); assay type: functional
MV4-11 [27] = assay: Induction of apoptosis in human MV4-11 cells assessed as early apoptotic cells at 50 nM incubated for 48 hrs by annexin V-FITC and propidium iodide staining based flow cytometry analysis (reference value: 3.71 %); assay type: functional

- inhibition [1]: 89.6%
Structure (SMILES): c1ccc(Nc2nc(N3CCNCC3)c3cc[nH]c3n2)cc1

- IC50 [2]: 50.3 nM
Structure (SMILES): Clc1cccc(Nc2nc(NC3CCNCC3)c3cc[nH]c3n2)c1

- Ki [3]: 3.3 nM
Structure (SMILES): COCCNc1nc2ccc(C#CC3(O)CCCCC3)cc2n1-c1ncnc(N)n1

- IC50 [2]: 9 nM
Structure (SMILES): C[C@@H]1CN(C(=O)c2nc(Nc3cc(C4CC4)[nH]n3)c3cc(Cl)ccc3n2)CCN1

- IC50 [2]: 229 nM
- inhibition [1]: 72.5%
Structure (SMILES): N[C@@H]1CCCN(c2nc(Nc3cccc(Cl)c3)nc3[nH]ccc23)C1

- inhibition [1]: 61%
Structure (SMILES): NCC1CCCN(c2nc(Nc3cccc(Cl)c3)nc3[nH]ccc23)C1 (stereo not given)

- IC50 (MV4-11 [4]): 38.3 nM
- IC50 (MDA-MB-231): 2480 nM
- IC50 [2]: 20.2 nM
Structure (SMILES): N[C@H]1CC[C@H](Nc2nc(Nc3cccc(Cl)c3)nc3[nH]ccc23)CC1
- IC50 at 72 h [5]: 7390 nM

- inhibition [1]: 91.6%
Structure (SMILES): c1ccc(Nc2nc(N3CCOCC3)c3cc[nH]c3n2)cc1

- IC50 [2]: 165 nM
- inhibition [1]: 38.3%
Structure (SMILES): Fc1cccc(Nc2nc(NC3CCNCC3)c3cc[nH]c3n2)c1

- IC50 [2]: 2940 nM
- inhibition [1]: 64.2%
Structure (SMILES): c1ccc(Nc2nc(NC3CCNCC3)c3cc[nH]c3n2)cc1

- inhibition [1]: 25.9%
Structure (SMILES): Clc1cccc(Nc2nc(NCC3CCNCC3)c3cc[nH]c3n2)c1

- inhibition [1]: 82.4%
Structure (SMILES): OCC(O)CNc1nc(Nc2ccccc2)nc2[nH]ccc12 (stereo not given)

- inhibition [1]: 35.5%
Structure (SMILES): CC1(N)CCN(c2nc(Nc3cccc(Cl)c3)nc3[nH]ccc23)CC1

- IC50 (MV4-11 [4]): 7.8 nM
- IC50 (MDA-MB-231): 825 nM
- IC50 [2]: 2.7 nM
- inhibition [25]: Dde
Structure (SMILES): N[C@H]1CC[C@@H](Nc2nc(Nc3cccc(Cl)c3)nc3[nH]ccc23)CC1
- Activity (MV4-11 [6]): 3.97%
- Activity (MV4-11 [7]): 8.71%
- Activity (MV4-11 [8]): 17.34%
- Activity (MV4-11 [9]): 2.99%
- Activity (MV4-11 [10]): 0.032%
- Activity (MV4-11 [11]): 90.98%
- Activity (MV4-11 [12]): 88.81%
- IC50 at 72 h [5]: > 10000 nM
- Activity (MV4-11 [13]): 4.28%
- Activity (MV4-11 [14]): 7.75%
- viability at 0.01 µM (MV4-11 [15]): 92.7%
- Activity (MV4-11 [16]): 1.27%
- Activity (MV4-11 [17]): 14.5%
- Activity (MV4-11 [18]): 2.48%
- viability at 0.05 µM (MV4-11 [19]): 78.4%
- Activity (MV4-11 [20]): 78.7%
- Activity (MV4-11 [21]): 0.043%
- viability at 0.25 µM (MV4-11 [22]): 72.8%
- Activity (MV4-11 [23]): 9.71%
- Activity (MV4-11 [24]): 0.087%
- Activity (MV4-11 [26]): 12.5%
- Activity (MV4-11 [27]): 11.9%

- inhibition [1]: 46.2%
Structure (SMILES): COc1cccc(Nc2nc(NC3CCNCC3)c3cc[nH]c3n2)c1

- IC50 [2]: 229 nM
- inhibition [1]: 38.3%
Structure (SMILES): N[C@H]1CCCN(c2nc(Nc3cccc(Cl)c3)nc3[nH]ccc23)C1

- inhibition [1]: 86.9%
Structure (SMILES): OCCNc1nc(Nc2ccccc2)nc2[nH]ccc12

- IC50 [2]: 100 nM
Structure (SMILES): Nc1ccc(/C=C/C(=O)NCc2cc3cc(-c4ccc(C(=O)N5CCC(F)(F)CC5)cc4)cc(-c4ccc(F)cc4)c3o2)cn1 [PADNARSERTIB]
